Source: patent US11084814B2, “Pyrido[3, 4-d]pyrimidine derivative and pharmaceutically acceptable salt thereof” (Teijin Pharma Limited, priority 2016, dated 2021)

Key:
CDK4/cyclin D3 = target: T1, CDK4/cyclin D3 (Homo sapiens, UniProt P11802); assay: Human CDK4/cyclin D3 inhibitory activity (QS S Assist CDK4/Cyclin D3_FP Kit, IMAP fluorescent polarization); type: biochemical; conditions: read-out: CDK4 Activity symbol
T1 construct: purchased Carna Biosciences, Inc. QS S Assist CDK4/Cyclin D3_FP Kit
How it was run: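 Kinase reactions used kit CDK4/cyclin D3 at 12.5–25 ng/well with the kit ATP/substrate/metal mix in 20 mM HEPES (pH 7.4), 0.01% Tween20 and 2 mM DTT, run 45 min at room temperature. Phosphorylation was detected by IMAP fluorescence polarization (ex 485/em 535 nm) after 30 min binding in the dark. IC50 was fitted from percent inhibition against DMSO controls with and without enzyme.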

CDK2/cyclin A2 = target: T2, CDK2/cyclin A2 (Homo sapiens, UniProt P24941); assay: Human CDK2/cyclin A2 inhibitory activity (QS S Assist CDK2/Cyclin A2_FP Kit, IMAP fluorescent polarization); type: biochemical; conditions: read-out: CDK2 Activity symbol
T2 construct: purchased Carna Biosciences, Inc. QS S Assist CDK2/Cyclin A2_FP Kit
How it was run: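 Kit CDK2/cyclin A2 (2.5 ng/well) was reacted with kit ATP/substrate/metal in 20 mM HEPES pH 7.4, 0.01% Tween 20 and 2 mM DTT for 60 min at room temperature. IMAP binding reagent was added for 30 min, then fluorescence polarization was read at 485/535 nm. IC50 came from dose-response fitting of percent inhibition.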

T1 sequence (P11802 whole entry): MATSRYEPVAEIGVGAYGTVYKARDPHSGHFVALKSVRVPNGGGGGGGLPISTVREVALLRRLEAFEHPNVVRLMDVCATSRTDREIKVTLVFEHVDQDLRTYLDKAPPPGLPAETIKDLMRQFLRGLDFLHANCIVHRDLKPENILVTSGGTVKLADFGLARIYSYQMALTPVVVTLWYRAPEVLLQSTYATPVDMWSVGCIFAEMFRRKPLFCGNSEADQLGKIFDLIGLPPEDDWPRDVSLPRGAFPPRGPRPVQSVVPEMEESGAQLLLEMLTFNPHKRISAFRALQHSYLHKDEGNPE
T1 sequence (P30281 whole entry partner): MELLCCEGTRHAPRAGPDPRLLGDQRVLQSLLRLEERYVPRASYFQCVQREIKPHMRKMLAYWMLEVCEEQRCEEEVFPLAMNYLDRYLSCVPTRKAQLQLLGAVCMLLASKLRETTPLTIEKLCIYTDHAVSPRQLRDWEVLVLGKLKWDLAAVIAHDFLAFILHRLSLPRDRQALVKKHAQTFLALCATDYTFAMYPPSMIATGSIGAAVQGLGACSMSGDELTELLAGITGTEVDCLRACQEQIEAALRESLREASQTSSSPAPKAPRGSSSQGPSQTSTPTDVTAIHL

| SMILES | IC50 (CDK4/cyclin D3) [nM] | IC50 (CDK2/cyclin A2) [nM] |
| --- | --- | --- |
| CC(O)c1cc2cnc(Nc3ccc(CN4CCN(C)CC4)cn3)nc2c(N2CCCC2C)n1 (centres unmarked) [Compound 136] | < 10 | ≥ 100 |
| C[C@@H](O)c1cc2cnc(Nc3ccc(CN4CCN(C)CC4)cn3)nc2c(N2CCC[C@@H]2C)n1 [Compound 137] | 10 to 100 | ≥ 100 |
| C[C@@H](O)c1cc2cnc(Nc3ccc4c(n3)CCN(C(=O)CN3CCN(C)CC3)C4)nc2c(N2C3CCC2CC3)n1 [Compound 264] | < 10 | ≥ 100 |
| C[C@@H](O)c1cc2cnc(Nc3ccc(N4CCNCC4=O)cn3)nc2c(N2CCC2)n1 [Compound 50] | 10 to 100 | ≥ 100 |
| Cc1nc(Nc2ncc3cc([C@@H](C)O)nc(N4CCCC4)c3n2)ccc1N1CCN(C)CC1 [Compound 53] | < 10 | ≥ 100 |
| C[C@@H](O)c1cc2cnc(Nc3ccc(OC4CCN(CCO)CC4)cn3)nc2c(N2CCC[C@H](F)C2)n1 [Compound 222] | < 10 | ≥ 100 |
| C[C@@H](O)c1cc2cnc(Nc3ccc4c(n3)CCN(C(=O)CN3CC5(CN(C)C5)C3)C4)nc2c(N2C3CCC2CC3)n1 [Compound 265] | < 10 | ≥ 100 |
| C[C@@H](CO)c1cc2cnc(Nc3ccc4c(n3)CCN(CCO)C4)nc2c(N2CCCCC2)n1 [Compound 171] | 10 to 100 | ≥ 100 |
| C[C@@H](O)c1cc2cnc(Nc3ccc4c(n3)CCN(CCN(C)C)C4)nc2c(N2CCC(F)CC2)n1 [Compound 61] | < 10 | ≥ 100 |
| Cc1c(CO)nc(N2CCOCC2)c2nc(Nc3ccc(N4CCNCC4)cn3)ncc12 [Compound 33] | < 10 | ≥ 100 |
| C[C@@H](O)c1cc2cnc(Nc3ccc(N4CCNCC4)nn3)nc2c(N2CCCCC2C(=O)O)n1 (some centres unmarked) [Compound 41] | < 10 | ≥ 100 |
| CC(O)c1cc2cnc(Nc3ccc4c(n3)CCN(C(=O)C3CCCCN3C)C4)nc2c(N2C3CCC2CC3)n1 (centres unmarked) [Compound 238] | < 10 | ≥ 100 |
| C[C@@H](O)c1cc2cnc(Nc3ccc4c(n3)CCN(C(=O)Cn3cncn3)C4)nc2c(N2CCCCC2)n1 [Compound 332] | 10 to 100 | ≥ 100 |
| C[C@@H](O)c1cc2cnc(Nc3ccc4c(n3)CCN(CC3COC3)C4)nc2c(N2CCCCC2)n1 [Compound 197] | 10 to 100 | ≥ 100 |
| C[C@@H](O)c1cc2cnc(Nc3ccc(CN4CCN(CCO)CC4)cn3)nc2c(N2CCOCC2)n1 [Compound 58] | 10 to 100 | ≥ 100 |
| C[C@@H](O)c1cc2cnc(Nc3ccc(CN4CCN(CCO)CC4)cn3)nc2c(N2CCOC[C@@H]2C)n1 [Compound 293] | 10 to 100 | ≥ 100 |
| c1cc(N2CCNCC2)nnc1Nc1ncc2cc(C3CCOC3)nc(N3C4CCC3CC4)c2n1 (centres unmarked) [Compound 207] | < 10 | ≥ 100 |
| C[C@@H](O)c1cc2cnc(Nc3ccc4c(n3)CCN(C3CN(C)C3)C4)nc2c(N2CCCCC2)n1 [Compound 200] | < 10 | ≥ 100 |
| C[C@@H](O)c1cc2cnc(Nc3ccc(N4CCNCC4)nn3)nc2c(N2CCC(C#N)CC2)n1 [Compound 273] | < 10 | ≥ 100 |
| CC[C@@H](O)c1cc2cnc(Nc3ccc(CN4CCN(CCO)CC4)cn3)nc2c(N2CCCCC2)n1 [Compound 159] | 10 to 100 | ≥ 100 |
| OCCN1CCN(Cc2ccc(Nc3ncc4cc(C(F)F)nc(N5CCCCC5)c4n3)nc2)CC1 [Compound 128] | < 10 | ≥ 100 |
| C[C@@H](O)c1cc2cnc(Nc3ccc(CN4CCN(CCO)CC4)cn3)nc2c(N2CCC(C#N)CC2)n1 [Compound 271] | < 10 | ≥ 100 |
| C[C@@H](O)c1cc2cnc(Nc3ccc(O[C@H]4CCCNC4)cn3)nc2c(N2CC[C@@H](F)C2)n1 [Compound 250] | < 10 | ≥ 100 |
| C[C@@H](O)c1cc2cnc(Nc3ccc4c(n3)CCN(C(=O)[C@H]3CCCN3C)C4)nc2c(N2C3CCC2CC3)n1 [Compound 224] | < 10 | ≥ 100 |
| C[C@@H](O)c1cc2cnc(Nc3ccc(O[C@H]4CCCN(CCO)C4)cn3)nc2c(N2CCCCC2)n1 [Compound 252] | < 10 | ≥ 100 |

| SMILES | IC50 (CDK4/cyclin D3) [nM] | IC50 (CDK2/cyclin A2) [nM] |
| --- | --- | --- |
| C[C@@H](O)c1cc2cnc(Nc3ccc4c(n3)CCN(C3CN(C)C3)C4)nc2c(N2C3CCC2CC3)n1 [Compound 240] | < 10 | ≥ 100 |
| C[C@@H](O)c1cc2cnc(Nc3ccc4c(n3)CCN(C(=O)C3CCN(CCO)CC3)C4)nc2c(N2CCCCC2)n1 [Compound 148] | < 10 | ≥ 100 |
| C[C@@H](O)c1cc2cnc(Nc3ccc(OC4CCN(CCO)CC4)cn3)nc2c(N2CCCCC2)n1 [Compound 165] | < 10 | ≥ 100 |
| C[C@@H](O)c1cc2cnc(Nc3ccc(CN4CCN(CCO)CC4)cn3)nc2c(N2CCC(F)CC2)n1 [Compound 78] | < 10 | ≥ 100 |
| OCCc1cc2cnc(Nc3ccc4c(n3)CCNC4)nc2c(N2CCCCC2)n1 [Compound 95] | 10 to 100 | ≥ 100 |
| C[C@@H](O)c1cc2cnc(Nc3ccc(N4CCNCC4=O)cn3)nc2c(N2CCOC[C@@H]2C)n1 [Compound 299] | 10 to 100 | ≥ 100 |
| CC(O)c1cc2cnc(Nc3ccc(N4CCCNCC4=O)cn3)nc2c(N2C3CCCC2CC3)n1 (centres unmarked) [Compound 329] | < 10 | 10 to 100 |
| C[C@@H](O)c1cc2cnc(Nc3ccc(N4CCN(C)CCC4=O)cn3)nc2c(N2CCCC2)n1 [Compound 120] | < 10 | ≥ 100 |
| C[C@H](CO)c1cc2cnc(Nc3ccc(N4CCNCC4=O)cn3)nc2c(N2CCCCC2)n1 [Compound 192] | 10 to 100 | ≥ 100 |
| C[C@@H](O)c1cc2cnc(Nc3ccc(N4CCN(C)CCC4=O)cn3)nc2c(N2CCCCC2)n1 [Compound 121] | < 10 | ≥ 100 |
| C[C@H]1CCN(c2nc([C@@H](C)O)cc3cnc(Nc4ccc(CN5CCN(CCO)CC5)cn4)nc23)C1 [Compound 99] | < 10 | ≥ 100 |
| CN(C)C(=O)c1cc2cnc(Nc3ccc(N4CCNCC4)cn3)nc2c(N2CCCCC2)n1 [Compound 27] | 10 to 100 | ≥ 100 |
| C[C@H](CO)c1cc2cnc(Nc3ccc4c(n3)CCNC4)nc2c(N2CCCCC2)n1 [Compound 166] | 10 to 100 | ≥ 100 |
| CN1CCN(c2ccc(Nc3ncc4cc(CO)nc(N5CCCCC5)c4n3)nc2)CC1 [Compound 2] | < 10 | ≥ 100 |
| C[C@@H](O)c1cc2cnc(Nc3ccc(C(=O)N4CC[C@@H](N(C)C)C4)cn3)nc2c(N2CCCCC2)n1 [Compound 312] | < 10 | ≥ 100 |
| C[C@@H](O)c1cc2cnc(Nc3ccc(CN4CCC(CO)CC4)cn3)nc2c(N2CCOCC2)n1 [Compound 70] | 10 to 100 | ≥ 100 |
| C[C@@H](O)c1cc2cnc(Nc3ccc(CN4CCN(CCO)CC4)cn3)nc2c(N2CCC(C(=O)O)CC2)n1 [Compound 76] | < 10 | ≥ 100 |
| C[C@@H](O)c1cc2cnc(Nc3ccc(CN4CCN(CCO)CC4)cn3)nc2c(N2CCC[C@@H]2C)n1 [Compound 98] | 10 to 100 | ≥ 100 |
| C[C@@H](O)c1cc2cnc(Nc3ccc4c(n3)CCN(C(=O)CN3CC[C@H](O)C3)C4)nc2c(N2C3CCC2CC3)n1 [Compound 233] | < 10 | ≥ 100 |
| C[C@@H](O)c1cc2cnc(Nc3ccc(CN4CCN(CCO)CC4)cn3)nc2c(N2CC3(CCC3)C2)n1 [Compound 57] | < 10 | ≥ 100 |
| CC(O)c1cc2cnc(Nc3ccc(N4CCNCC4)cn3)nc2c(N2CCCCC2)n1 (centres unmarked) [Compound 24] | < 10 | ≥ 100 |
| C[C@@H](O)c1cc2cnc(Nc3ccc(N4CCNCCC4=O)cn3)nc2c(N2CCCCC2)n1 [Compound 89] | < 10 | ≥ 100 |
| c1cc(N2CCNCC2)nnc1Nc1ncc2cc(C3COC3)nc(N3CCCCC3)c2n1 [Compound 277] | 10 to 100 | ≥ 100 |
| C[C@@H](O)c1cc2cnc(Nc3ccc4c(n3)CCN(C(=O)C3CNCCO3)C4)nc2c(N2CCCCC2)n1 (some centres unmarked) [Compound 216] | < 10 | ≥ 100 |
